Source: US8283336B2, “Unit dosage for brain health” (N. V. Nutricia, priority 2007, dated 2012)

Test system: APP/PS1 mice
Assay: abeta plaque burden in hippocampus of APP/PS1 mice fed enriched diets
Type: in vivo
Settings: diet fed 3 months from 3 to 6 months of age, compared to control diet
Excerpt: (§1) These mice start showing plaques in their brains as early as 4-5 months of age and are considered a good model for AD in scientific literature.
(§2) The diets were fed for a period of 3 months until the age of 6 months. Thereafter the mice were sacrificed and their brains processed for abeta plaque analyses and neurodegeneration analyses. The brain was cut into thin slices using a vibratome and the slices were stained for abeta using an antibody recognizing human abeta and for neurodegeneration using the amino-cupric staining The total number of plaques in the hippocampus was counted and the total surface of the area covered by plaques (plaque burden) was determined. Total surface area covered with neuritic plaques (staining positive for amino-cupric) was determined to measure the level of neurodegeneration.
In the case of `O=c1ccn([C@@H]2O[C@H](COP(=O)(O)O)[C@@H](O)[C@H]2O)c(=O)[nH]1` [UMP, uridine monophosphate], the “plaque burden in the hippocampus” value is reported as “not affected”.

Test system: APP/PS1 mice
Assay: neurodegeneration (amino-cupric staining of neuritic plaques) in APP/PS1 mice fed enriched diets
Type: in vivo
Settings: diet fed 3 months from 3 to 6 months of age, compared to control diet
Excerpt: as §1, §2
With `O=c1ccn([C@@H]2O[C@H](COP(=O)(O)O)[C@@H](O)[C@H]2O)c(=O)[nH]1` [UMP, uridine monophosphate] the level of neurodegeneration was “did not differ from the control”.

Test system: muscarinic acetylcholine receptor
Assay: oxotremorine-induced membrane potential change in PC12 cells after incubation with nutrients (receptor functionality)
Type: cell-based
Settings: 1 day of incubation, then 50 μM oxotremorine, percentage change compared to control conditions
Method: After 1 day of incubation the medium+additions were replaced by control medium and the cells were stimulated with 50 μM oxotremorine, an agonist at the muscarinic acetylcholine receptor, involved in learning and memory. Oxotremorine induces a depolarization of the membrane which can be measured as a change in membrane potential. At a fixed dose of the agonist, increases in membrane potential are thought to reflect improvements in receptor functioning.
With `O=c1ccn([C@@H]2O[C@H](COP(=O)(O)O)[C@@H](O)[C@H]2O)c(=O)[nH]1` [UMP, uridine monophosphate] the membrane potential change was “did not affect membrane potential change”.

Test system: PC12 cells
Assay: survival of PC12 cells during incubation with nutrients
Type: cell-based
Settings: control medium plus nutrient
In the case of `CC/C=C\C/C=C\C/C=C\C/C=C\C/C=C\C/C=C\CCC(=O)O` [DHA, docosahexaenoic acid], the “cell death on incubation” value is reported as “led to cell death”.

Test system: not given
Assay: not given
Settings: per 1.0 mg of the tocopherol equivalent; cited from earlier work
For `Cc1c(C)c2c(c(C)c1O)CCC(C)(CCCC(C)CCCC(C)CCCC(C)C)O2` (racemic) [all rac-α-tocopherol], the “IU vitamin E” value is listed as 1.10 IU and the “x mg α-TE” value is listed as 0.74 mg α-TE. In the case of `CC(=O)Oc1c(C)c(C)c2c(c1C)CCC(C)(CCCC(C)CCCC(C)CCCC(C)C)O2` (racemic) [all rac-α-tocopheryl acetate], the “IU vitamin E” value is given as 1.00 IU and the “x mg α-TE” value is given as 0.67 mg α-TE. For `Cc1c(C)c2c(c(C)c1OC(=O)CCC(=O)O)CCC(C)(CCCC(C)CCCC(C)CCCC(C)C)O2` (racemic) [all rac-α-tocopheryl succinate], the “IU vitamin E” value is listed as 0.89 IU and the “x mg α-TE” value is listed as 0.60 mg α-TE. For `Cc1c(C)c2c(c(C)c1O)CC[C@@](C)(CCC[C@H](C)CCC[C@H](C)CCCC(C)C)O2` [RRR-α-tocopherol], the “IU vitamin E” value is listed as 1.49 IU and the “x mg α-TE” value is listed as 1.0 mg α-TE. In the case of `CC(=O)Oc1c(C)c(C)c2c(c1C)CC[C@@](C)(CCC[C@H](C)CCC[C@H](C)CCCC(C)C)O2` [RRR-α-tocopheryl acetate], the “IU vitamin E” value is listed as 1.36 IU and the “x mg α-TE” value is listed as 0.91 mg α-TE. In the case of `Cc1c(C)c2c(c(C)c1OC(=O)CCC(=O)O)CC[C@@](C)(CCC[C@H](C)CCC[C@H](C)CCCC(C)C)O2` [RRR-α-tocopheryl succinate], the “IU vitamin E” value is listed as 1.21 IU and the “x mg α-TE” value is listed as 0.81 mg α-TE. In the case of `CC(C)=CCC/C(C)=C/CC/C(C)=C/CC[C@]1(C)CCc2c(C)c(O)c(C)c(C)c2O1` [RRR-α-tocotrienol], the “IU vitamin E” value is given as 0.75 IU and the “x mg α-TE” value is given as 0.50 mg α-TE. For `Cc1cc(O)c(C)c2c1O[C@](C)(CCC[C@H](C)CCC[C@H](C)CCCC(C)C)CC2` [RRR-β-tocopherol], the “IU vitamin E” value is given as 0.75 IU and the “x mg α-TE” value is given as 0.50 mg α-TE. For `CC(C)=CCC/C(C)=C/CC/C(C)=C/CC[C@]1(C)CCc2c(C)c(O)cc(C)c2O1` [RRR-β-tocotrienol], the “IU vitamin E” value is given as 0.08 IU and the “x mg α-TE” value is given as 0.05 mg α-TE. In the case of `Cc1c(O)cc2c(c1C)O[C@](C)(CCC[C@H](C)CCC[C@H](C)CCCC(C)C)CC2` [RRR-γ-tocopherol], the “IU vitamin E” value is listed as 0.15 IU and the “x mg α-TE” value is listed as 0.10 mg α-TE. For `Cc1cc(O)cc2c1O[C@](C)(CCC[C@H](C)CCC[C@H](C)CCCC(C)C)CC2` [RRR-δ-tocopherol], the “IU vitamin E” value is given as 0.05 IU and the “x mg α-TE” value is given as 0.03 mg α-TE.
